Assay results reported in ChEMBL document CHEMBL1201862, “PubChem BioAssay data set” (2004).
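A five-concentration, 48-hour dose response in 96-well plates underlies each endpoint, interpolated linearly between surrounding concentrations. GI50: concentration for 50% inhibition of growth.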 Activity calls are given as the source filed them. Rule as the data show it: active = GI50 up to about 1.1 µM and inactive = higher.

Key:
Assay in all cases: growth of human tumour cells (NCI), 48 h
SF-295 = system: SF-295
Malme-3M = system: Malme-3M
HCC 2998 = system: HCC 2998
NCI-H522 = system: NCI-H522
UACC-257 = system: UACC-257
OVCAR-5 = system: OVCAR-5
RPMI-8226 = system: RPMI-8226
A498 = system: A498
UACC-62 = system: UACC-62
LOX IMVI = system: LOX IMVI
A549 = system: A549
OVCAR-8 = system: OVCAR-8
U-251 = system: U-251
SR = system: SR
IGROV-1 = system: IGROV-1
SNB-19 = system: SNB-19
NCI-H460 = system: NCI-H460

Row | Structure (SMILES) | GI50 (SF-295) | GI50 (Malme-3M) | GI50 (HCC 2998) | GI50 (NCI-H522) | GI50 (UACC-257) | GI50 (OVCAR-5) | GI50 (RPMI-8226) | GI50 (A498) | GI50 (UACC-62) | GI50 (LOX IMVI) | GI50 (A549) | GI50 (OVCAR-8) | GI50 (U-251) | GI50 (SR) | GI50 (IGROV-1) | GI50 (SNB-19) | GI50 (NCI-H460)
1 | C/C(=N\O)C(CN(C)C)C(c1ccccc1)c1c(O)c2ccccc2oc1=O (stereo not drawn) | > 100 µM (inactive) | > 100 µM (inactive) | > 100 µM (inactive) | > 100 µM (inactive) | > 100 µM (inactive) | > 100 µM (inactive) | > 100 µM (inactive) | > 100 µM (inactive) | > 100 µM (inactive) | > 100 µM (inactive) | > 100 µM (inactive) | > 100 µM (inactive) | > 100 µM (inactive) | > 100 µM (inactive) | > 100 µM (inactive) | > 100 µM (inactive) | 
2 | C/C(CC(=O)Nc1cccc([N+](=O)[O-])c1)=N\NC(=O)CC#N | > 100 µM (inactive) | > 100 µM (inactive) | > 100 µM (inactive) | 99.1 µM (inactive) | > 100 µM (inactive) | > 100 µM (inactive) | > 100 µM (inactive) |  | > 100 µM (inactive) | > 100 µM (inactive) | > 100 µM (inactive) | > 100 µM (inactive) | > 100 µM (inactive) |  | > 100 µM (inactive) |  | 
3 | CN(c1ccccc1)c1nc(=[N+]2CCCC2)ss1.[O-][Cl+3]([O-])([O-])[O-] |  | > 100 µM (inactive) | > 100 µM (inactive) | 1.7 µM (inactive) | > 100 µM (inactive) |  | > 100 µM (inactive) | > 100 µM (inactive) | > 100 µM (inactive) |  | > 100 µM (inactive) | > 100 µM (inactive) | > 100 µM (inactive) | 17.1 µM (inactive) | > 100 µM (inactive) | > 100 µM (inactive) | 1.85 µM (inactive)
4 | CN(C)C(=N)NC(=S)N(C)C | > 100 µM (inactive) | > 100 µM (inactive) | > 100 µM (inactive) | > 100 µM (inactive) | > 100 µM (inactive) | > 100 µM (inactive) | > 100 µM (inactive) | > 100 µM (inactive) | > 100 µM (inactive) | > 100 µM (inactive) | > 100 µM (inactive) | > 100 µM (inactive) | > 100 µM (inactive) | > 100 µM (inactive) | > 100 µM (inactive) | > 100 µM (inactive) | > 100 µM (inactive)
5 | CC(=O)c1c2c(cc3c1CC1(C3)Cc3cc4c(c(C(=O)O)c3C1)CCC4)CCC2 (stereo not drawn) | 38.9 µM (inactive) | 29.4 µM (inactive) | 37.8 µM (inactive) | 15.9 µM (inactive) | 45 µM (inactive) | > 100 µM (inactive) |  |  | 28.6 µM (inactive) | 32.4 µM (inactive) | 30.8 µM (inactive) | 41 µM (inactive) | 26.2 µM (inactive) | 25.2 µM (inactive) | 50.7 µM (inactive) | 45.3 µM (inactive) | 32 µM (inactive)
6 | COC(=O)C1(c2ccc(OC)cc2)NC(c2ccccc2)C2C(=O)N(c3ccc(OC)cc3)C(=O)C21 (stereo not drawn) | > 100 µM (inactive) | > 100 µM (inactive) | > 100 µM (inactive) | > 100 µM (inactive) | > 100 µM (inactive) | > 100 µM (inactive) | > 100 µM (inactive) | > 100 µM (inactive) | > 100 µM (inactive) | > 100 µM (inactive) | > 100 µM (inactive) | > 100 µM (inactive) | > 100 µM (inactive) |  | > 100 µM (inactive) | > 100 µM (inactive) | > 100 µM (inactive)
7 | Clc1ccc(Cl)c2[s+]snc12 | > 76.6 µM (inactive) | > 49.5 µM (inactive) | > 100 µM (inactive) | 18.1 µM (inactive) | > 93.3 µM (inactive) | > 100 µM (inactive) | > 48.6 µM (inactive) | > 100 µM (inactive) | 43.4 µM (inactive) | 31 µM (inactive) | > 100 µM (inactive) | 40.3 µM (inactive) | 38.6 µM (inactive) | > 100 µM (inactive) | > 100 µM (inactive) | > 93.5 µM (inactive) | 30.7 µM (inactive)
8 | COC1(OC)CC2C(=O)N(Cc3ccccc3)C1C(S(=O)(=O)c1ccccc1)C2C(C)S(=O)(=O)c1ccccc1 (stereo not drawn) | > 100 µM (inactive) | > 100 µM (inactive) | > 100 µM (inactive) | > 100 µM (inactive) | > 100 µM (inactive) | > 100 µM (inactive) | > 100 µM (inactive) |  | > 100 µM (inactive) | > 100 µM (inactive) | > 100 µM (inactive) | > 100 µM (inactive) | > 100 µM (inactive) | > 100 µM (inactive) | > 100 µM (inactive) | > 100 µM (inactive) | > 100 µM (inactive)
9 | Cc1cc(O)c(C(=O)O)c2c1C(=O)c1c(O)c(OCC(O)C(O)C(O)C(O)CO)c(O)c(O)c1C2=O.NCCNCCO (stereo not drawn) | > 100 µM (inactive) | > 100 µM (inactive) | > 100 µM (inactive) | > 100 µM (inactive) | > 100 µM (inactive) | > 100 µM (inactive) | > 100 µM (inactive) | > 100 µM (inactive) | > 100 µM (inactive) | > 100 µM (inactive) | > 100 µM (inactive) | > 100 µM (inactive) | > 100 µM (inactive) |  | > 100 µM (inactive) | > 100 µM (inactive) | 
10 | CC(=O)OC1CC[C@@]2(C)C(CC(OC3OC(CO)C(O)C(O)C3O)[C@]3(C)C2CCC24CC23CC[C@H]4C(C)CC(O)[C@@H](O)C(C)(C)O)C1(C)C (stereo partly drawn) | 22.4 µM (inactive) | 9.51 µM (inactive) | 11.7 µM (inactive) | 8.63 µM (inactive) | 11.7 µM (inactive) | > 50 µM (inactive) | 10.3 µM (inactive) | 16.8 µM (inactive) | 9.2 µM (inactive) | 8.61 µM (inactive) | > 50 µM (inactive) | 19.9 µM (inactive) | 9.71 µM (inactive) |  | 11.5 µM (inactive) | 14.2 µM (inactive) | 18.8 µM (inactive)
11 | N#CC1=C(c2ccccc2)NNC(c2ccc(Cl)cc2)CC1=O (stereo not drawn) | 24.6 µM (inactive) | 32.4 µM (inactive) | 56.6 µM (inactive) | 20.4 µM (inactive) | 45 µM (inactive) | 37.1 µM (inactive) | 29.9 µM (inactive) | 68.7 µM (inactive) |  | 32.8 µM (inactive) | 39.9 µM (inactive) |  | 57.8 µM (inactive) | 39.2 µM (inactive) |  | 53.2 µM (inactive) | 36.1 µM (inactive)
12 | C/C(=N/Nc1ccc([N+](=O)[O-])cc1[N+](=O)[O-])C(CC(C(=O)NCc1ccccc1)/C(C)=N\Nc1ccc([N+](=O)[O-])cc1[N+](=O)[O-])C(=O)NCc1ccccc1 (stereo not drawn) | 5.89 µM (inactive) | 12.2 µM (inactive) | 13.2 µM (inactive) | < 0.01 µM (active) | 5.21 µM (inactive) | 19.4 µM (inactive) | 14.7 µM (inactive) | 14.8 µM (inactive) | 11.7 µM (inactive) |  | 4.4 µM (inactive) | 2.14 µM (inactive) | 3.25 µM (inactive) | 9.1 µM (inactive) | 13.7 µM (inactive) | 15.2 µM (inactive) | 5.51 µM (inactive)
13 | c1ccc2c(c1)[nH]c1c2ncc2[nH]c3ccccc3c21 | 3.58 µM (inactive) | 19.4 µM (inactive) | 2.64 µM (inactive) | 4.74 µM (inactive) | > 10 µM (inactive) | 10.9 µM (inactive) | 2.26 µM (inactive) | 2.72 µM (inactive) | 1.76 µM (inactive) | 1.94 µM (inactive) | 4.65 µM (inactive) | 3.23 µM (inactive) | 2.43 µM (inactive) |  | 5.19 µM (inactive) | 2.94 µM (inactive) | 2.13 µM (inactive)
14 | Cc1ccccc1NC(=O)C1C(=O)N(c2ccccc2C)C(=O)/C1=N\NC(N)=S (stereo not drawn) | > 100 µM (inactive) | > 100 µM (inactive) |  | > 100 µM (inactive) | > 100 µM (inactive) |  | > 100 µM (inactive) |  | > 100 µM (inactive) | > 100 µM (inactive) | > 100 µM (inactive) |  | > 100 µM (inactive) | > 100 µM (inactive) | > 100 µM (inactive) | > 100 µM (inactive) | 
15 | COc1cccc(/C=C2\C(=O)N(C(=O)c3ccc(NC(C)=O)cc3)N=C2C)c1 | > 100 µM (inactive) | > 100 µM (inactive) | > 100 µM (inactive) | > 100 µM (inactive) | > 100 µM (inactive) | > 100 µM (inactive) |  |  |  | > 100 µM (inactive) | > 100 µM (inactive) | > 100 µM (inactive) | > 100 µM (inactive) |  |  | > 100 µM (inactive) | > 100 µM (inactive)
16 | OC12CCC3(O)c4ccccc4C3C1c1ccccc12 (stereo not drawn) | > 100 µM (inactive) | > 100 µM (inactive) |  | > 100 µM (inactive) | > 100 µM (inactive) |  | > 100 µM (inactive) |  | > 100 µM (inactive) | > 100 µM (inactive) | > 100 µM (inactive) | > 100 µM (inactive) | > 100 µM (inactive) | > 100 µM (inactive) |  | > 100 µM (inactive) | > 100 µM (inactive)
17 | O=C(Cn1ccnc1[N+](=O)[O-])c1ccc(F)cc1 | > 100 µM (inactive) | > 100 µM (inactive) |  | > 100 µM (inactive) | > 100 µM (inactive) | > 100 µM (inactive) | > 100 µM (inactive) | > 100 µM (inactive) | > 100 µM (inactive) | > 100 µM (inactive) | > 100 µM (inactive) | > 100 µM (inactive) | > 100 µM (inactive) |  | > 100 µM (inactive) | > 100 µM (inactive) | > 100 µM (inactive)
18 | O=C1CN=C(c2ccccc2)c2ccncc2N1 | > 100 µM (inactive) | > 100 µM (inactive) | > 100 µM (inactive) | > 100 µM (inactive) | 26.6 µM (inactive) | > 100 µM (inactive) |  | > 100 µM (inactive) | > 100 µM (inactive) | > 100 µM (inactive) | > 100 µM (inactive) | > 100 µM (inactive) | > 100 µM (inactive) | > 100 µM (inactive) | > 100 µM (inactive) | > 100 µM (inactive) | 
